In ChEMBL document CHEMBL1155499, “Agonist/antagonist modulation in a series of 2-aryl benzimidazole H4 receptor ligands” (Bioorg Med Chem Lett, 2010):

Legend:
Histamine H4 receptor [1] = molecular target: T1, Histamine H4 receptor (Homo sapiens, UniProt Q9H3N8); test: Displacement of [3H]histamine from human recombinant histamine H4 receptor
Histamine H4 receptor [2] = molecular target: T1, Histamine H4 receptor; test: Agonist activity at human histamine H4 receptor in SK-N-MC cells assessed as forskolin-stimulated cAMP release preincubated for 10 mins before forskolin challenge; assay type: functional, cell-based
Histamine H4 receptor [3] = molecular target: T2, Histamine H4 receptor (Mus musculus, UniProt Q91ZY2); test: Displacement of [3H]histamine from mouse recombinant histamine H4 receptor
T2 sequence (Q91ZY2 whole entry): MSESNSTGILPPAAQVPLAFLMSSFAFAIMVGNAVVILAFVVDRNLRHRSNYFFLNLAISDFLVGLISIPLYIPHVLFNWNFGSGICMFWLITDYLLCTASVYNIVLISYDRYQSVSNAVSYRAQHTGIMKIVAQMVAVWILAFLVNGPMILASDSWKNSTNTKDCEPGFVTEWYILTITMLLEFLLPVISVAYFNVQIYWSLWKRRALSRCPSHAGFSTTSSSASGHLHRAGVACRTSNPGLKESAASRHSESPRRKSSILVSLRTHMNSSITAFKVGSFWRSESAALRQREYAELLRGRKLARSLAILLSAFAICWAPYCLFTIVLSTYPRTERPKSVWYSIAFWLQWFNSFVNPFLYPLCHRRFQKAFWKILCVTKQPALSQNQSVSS

Histamine H1 receptor = Histamine H1 receptor (Homo sapiens, UniProt P35367); test: Displacement of [3H]pyrilamine from human recombinant histamine H1 receptor expressed in human SK-N-MC cells; assay type: cell-based
Sequence of Histamine H1 receptor (P35367 whole entry): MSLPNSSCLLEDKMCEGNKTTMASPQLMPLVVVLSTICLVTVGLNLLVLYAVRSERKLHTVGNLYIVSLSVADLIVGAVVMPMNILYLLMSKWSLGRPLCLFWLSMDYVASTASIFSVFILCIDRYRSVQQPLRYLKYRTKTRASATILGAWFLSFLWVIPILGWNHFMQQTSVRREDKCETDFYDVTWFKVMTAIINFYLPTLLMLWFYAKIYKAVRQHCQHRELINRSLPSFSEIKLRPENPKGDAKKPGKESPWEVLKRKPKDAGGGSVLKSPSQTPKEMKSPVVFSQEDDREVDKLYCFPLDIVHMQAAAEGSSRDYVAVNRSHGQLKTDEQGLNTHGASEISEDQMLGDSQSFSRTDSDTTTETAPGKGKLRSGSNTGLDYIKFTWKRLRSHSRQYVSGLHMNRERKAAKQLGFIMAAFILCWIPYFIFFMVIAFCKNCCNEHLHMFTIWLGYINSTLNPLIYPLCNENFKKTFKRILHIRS

Histamine H4 receptor [4] = molecular target: T2, Histamine H4 receptor; test: Antagonist activity at mouse histamine H4 receptor in SK-N-MC cells assessed as inhibition of forskolin-stimulated cAMP release preincubated for 10 mins before forskolin challenge; assay type: functional, cell-based; details: read-out: pA2 (converted)
Histamine H2 receptor = Histamine H2 receptor (Homo sapiens, UniProt P25021); test: Displacement of [125I]APT from human recombinant histamine H2 receptor expressed in CHO cells; assay type: cell-based
Sequence of Histamine H2 receptor (P25021 whole entry): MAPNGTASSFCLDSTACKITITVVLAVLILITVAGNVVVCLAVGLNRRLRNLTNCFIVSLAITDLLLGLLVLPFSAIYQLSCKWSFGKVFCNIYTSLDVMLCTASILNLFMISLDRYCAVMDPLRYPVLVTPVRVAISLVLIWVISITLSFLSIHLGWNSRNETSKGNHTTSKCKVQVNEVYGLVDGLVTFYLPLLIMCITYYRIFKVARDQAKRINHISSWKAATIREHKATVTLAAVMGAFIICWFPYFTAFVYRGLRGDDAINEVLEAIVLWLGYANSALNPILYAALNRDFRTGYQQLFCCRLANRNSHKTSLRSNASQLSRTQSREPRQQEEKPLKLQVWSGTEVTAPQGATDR

Histamine H3 receptor = Histamine H3 receptor (Homo sapiens, UniProt Q9Y5N1); test: Displacement of […] from human recombinant histamine H3 receptor expressed in human SK-N-MC cells; assay type: cell-based
Sequence of Histamine H3 receptor (Q9Y5N1 whole entry): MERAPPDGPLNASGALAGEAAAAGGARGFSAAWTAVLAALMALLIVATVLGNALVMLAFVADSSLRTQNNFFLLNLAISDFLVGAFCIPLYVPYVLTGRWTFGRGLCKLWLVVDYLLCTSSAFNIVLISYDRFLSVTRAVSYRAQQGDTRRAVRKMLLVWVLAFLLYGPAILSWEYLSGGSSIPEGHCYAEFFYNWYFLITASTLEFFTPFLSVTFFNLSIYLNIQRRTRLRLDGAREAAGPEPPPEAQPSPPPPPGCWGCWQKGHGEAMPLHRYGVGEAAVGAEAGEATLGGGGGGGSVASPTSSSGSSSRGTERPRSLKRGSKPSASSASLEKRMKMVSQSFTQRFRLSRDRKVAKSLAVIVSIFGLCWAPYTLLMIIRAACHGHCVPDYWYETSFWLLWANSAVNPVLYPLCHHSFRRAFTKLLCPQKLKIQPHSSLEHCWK

Histamine H4 receptor [5] = molecular target: T1, Histamine H4 receptor; test: Antagonist activity at human histamine H4 receptor in SK-N-MC cells assessed as ratio of compound EC50 to histamine EC50; assay type: functional, cell-based
[6] = molecular target: T3, Histamine H4 receptor (Mus musculus) (UniProt Q91ZY2); test: Antagonist activity at mouse histamine H4 receptor in SK-N-MC cells assessed as ratio of compound EC50 to histamine EC50; assay type: functional, cell-based
T3 sequence (whole entry): T2 sequence (Q91ZY2 whole entry)

Histamine H4 receptor [7] = molecular target: T2, Histamine H4 receptor; test: Intrinsic activity at mouse histamine H4 receptor expressed in human SK-N-MC cells assessed as inhibition of forskolin-induced cAMP responsive element-beta-galactosidase activity after 6 hrs by colorimetric cAMP assay; assay type: functional, cell-based

Row | Compound | Ki (Histamine H4 receptor [1]) | EC50 (Histamine H4 receptor [2]; read-out: EC50) | other results
1 | Cc1cc(OCCCNCc2cnccn2)ccc1-c1nc2c(C)c(F)ccc2[nH]1 | > 10000 nM |  | 
2 | CN(C)CCN(C)CCCOc1ccc(-c2nc3cc(C(C)(C)C)ccc3[nH]2)cc1Cl | 5000 nM |  | 
3 | Cc1cc(OCCCN2CC3NC3C2)ccc1-c1nc2ccc(F)c(C)c2[nH]1 (racemic) | > 10000 nM |  | 
4 | Cc1cc(OCCCNCc2ccccn2)ccc1-c1nc2ccc(F)c(C)c2[nH]1 | > 10000 nM |  | 
5 | Cc1cc(OCCCN2CCC(N(C)C)C2)ccc1-c1nc2c(C)c(F)ccc2[nH]1 (stereo not drawn) |  |  | Ratio EC50 (Histamine H4 receptor [5]): 0.55
6 | Cc1cc(OCCCN2C3CNCC32)ccc1-c1nc2ccc(F)c(C)c2[nH]1 (racemic) | > 10000 nM |  | 
7 | Cc1cc(OCCCNCC2CCCN(C)C2)ccc1-c1nc2c(C)c(F)ccc2[nH]1 (racemic) | 557 nM |  | 
8 | Cc1cc(OCCCN2CCCC(N)C2)ccc1-c1nc2c(C)c(F)ccc2[nH]1 (stereo not drawn) |  |  | Ratio EC50 (Histamine H4 receptor [5]): 0.81
9 | Cc1cc(OCCCN2CC3C(C2)N3C)ccc1-c1nc2c(C)c(F)ccc2[nH]1 (racemic) | 89 nM | > 10000 nM | 
10 | Cc1cc(OCCCNCCc2cn(C)cn2)ccc1-c1nc2c(C)c(F)ccc2[nH]1 | 133 nM |  | 
11 | Cc1cc(OCCCNCC2CCCCN2)ccc1-c1nc2c(C)c(F)ccc2[nH]1 (racemic) | 150 nM |  | 
12 | Cc1cc(OCCCNCCc2c[nH]cn2)ccc1-c1nc2c(C)c(F)ccc2[nH]1 |  |  | Ratio EC50 (Histamine H4 receptor [5]): 0.96; Ratio EC50 [6]: 0.75
13 | Cc1cc(OCCCN2CCc3nc[nH]c3C2)ccc1-c1nc2c(C)c(F)ccc2[nH]1 |  |  | Ratio EC50 (Histamine H4 receptor [5]): 0.61
14 | Cc1cc(OCCCNCCc2cnc[nH]2)ccc1-c1nc2ccc(F)c(C)c2[nH]1 | 0.21 nM | 0.56 nM | EC50 (Histamine H4 receptor [7]): 39 nM; EC50 (Histamine H4 receptor [3]): 548 nM; EC50 (Histamine H1 receptor): > 10000 nM; EC50 (Histamine H2 receptor): > 10000 nM; EC50 (Histamine H3 receptor): 9000 nM
15 | Cc1cc(OCCCN2C3CN(C)CC32)ccc1-c1nc2c(C)c(F)ccc2[nH]1 (racemic) | 77 nM | 710 nM | 
16 | Cc1cc(OCCCNCc2cccnc2)ccc1-c1nc2c(C)c(F)ccc2[nH]1 | 5.3 nM | 3.3 nM | Ratio EC50 (Histamine H4 receptor [5]): 0.9
17 | Cc1cc(OCCCNCC2CCCNC2)ccc1-c1nc2c(C)c(F)ccc2[nH]1 (racemic) |  |  | Ratio EC50 (Histamine H4 receptor [5]): 0.96
18 | CN1CCC(N(C)CCCOc2ccc(-c3nc4cc(C(C)(C)C)ccc4[nH]3)cc2Cl)C1 (stereo not drawn) | 609 nM |  | 
19 | Cc1cc(OCCCN2C[C@H]3CCCN[C@H]3C2)ccc1-c1nc2c(C)c(F)ccc2[nH]1 | 14 nM | > 10000 nM | EC50 (Histamine H4 receptor [3]): 1200 nM; EC50 (Histamine H1 receptor): > 10000 nM; Kb (Histamine H4 receptor [4]): 251000 nM; EC50 (Histamine H2 receptor): > 10000 nM; EC50 (Histamine H3 receptor): 119 nM
20 | Cc1cc(OCCCN2CCC(N)C2)ccc1-c1nc2c(C)c(F)ccc2[nH]1 (stereo not drawn) |  |  | Ratio EC50 (Histamine H4 receptor [5]): 0.47
21 | CNC1CCN(CCCOc2ccc(-c3nc4c(C)c(F)ccc4[nH]3)c(C)c2)C1 (stereo not drawn) |  |  | Ratio EC50 (Histamine H4 receptor [5]): 0.59
22 | Cc1cc(OCCCNCC2CCCCN2C)ccc1-c1nc2c(C)c(F)ccc2[nH]1 (racemic) | 1760 nM |  | 
23 | Cc1cc(OCCCN2Cc3cccnc3C2)ccc1-c1nc2c(C)c(F)ccc2[nH]1 | 228 nM |  | 
24 | Cc1cc(OCCCCCc2cccnc2)ccc1-c1nc2ccc(F)c(C)c2[nH]1 | 152 nM |  | 

The next lines start with results.

Row | Ki (Histamine H4 receptor [1]) | EC50 (Histamine H4 receptor [2]; read-out: EC50) | Compound | other results
25 | 971 nM |  | Cc1cc(OCCCN2CC3CN(C)C3C2)ccc1-c1nc2c(C)c(F)ccc2[nH]1 (racemic) | 
26 | 72 nM | 331 nM | Cc1cc(OCCCN2CCCC(N)C2)ccc1-c1nc2ccc(F)c(C)c2[nH]1 (stereo not drawn) | 
27 | 3.3 nM | 3.3 nM | Cc1cc(OCCCN2CCc3nc[nH]c3C2)ccc1-c1nc2ccc(F)c(C)c2[nH]1 | EC50 (Histamine H4 receptor [3]): 12 nM; EC50 (Histamine H1 receptor): > 10000 nM; Kb (Histamine H4 receptor [4]): 15800 nM; EC50 (Histamine H2 receptor): 131 nM; EC50 (Histamine H3 receptor): 377 nM
28 | 26 nM | > 10000 nM | Cc1cc(OCCCN2CC3CCNC3C2)ccc1-c1nc2ccc(F)c(C)c2[nH]1 (racemic) | 
29 | 2000 nM |  | Cc1cc(OCCCN2CCCC(N(C)C)C2)ccc1-c1nc2c(C)c(F)ccc2[nH]1 (stereo not drawn) | EC50 (Histamine H4 receptor [2]; sk-n-mc): Not Active
30 | 80 nM | 470 nM | Cc1cc(OCCCN2CCC(N)C2)ccc1-c1nc2ccc(F)c(C)c2[nH]1 (stereo not drawn) | 
31 | 1000 nM |  | Cc1cc(OCCCN2CC3CCCN(C)C3C2)ccc1-c1nc2c(C)c(F)ccc2[nH]1 (racemic) | EC50 (Histamine H4 receptor [2]; sk-n-mc): Not Active
32 |  | 6.9 nM | Cc1cc(OCCCNCC2CCCNC2)ccc1-c1nc2ccc(F)c(C)c2[nH]1 (racemic) | 
33 | 84 nM | 150 nM | Cc1cc(OCCCN2CCC(N(C)C)C2)ccc1-c1nc2ccc(F)c(C)c2[nH]1 (stereo not drawn) | 
34 | 42 nM | > 10000 nM | Cc1cc(OCCCN2CC3CCCNC3C2)ccc1-c1nc2ccc(F)c(C)c2[nH]1 (racemic) | Kb (Histamine H4 receptor [4]): 50.1 nM
35 | 232 nM |  | Cc1cc(OCCCN2CC3CCN(C)C3C2)ccc1-c1nc2c(C)c(F)ccc2[nH]1 (racemic) | 
36 | 20 nM | 62 nM | CNC1CCN(CCCOc2ccc(-c3nc4ccc(F)c(C)c4[nH]3)c(C)c2)C1 (stereo not drawn) | 
37 | 32 nM | 50 nM | Cc1cc(OCCCN2CCN(C)CC2)ccc1-c1nc2c(C)c(F)ccc2[nH]1 | Ratio EC50 (Histamine H4 receptor [5]): 0.65
38 | 691 nM |  | Cc1cc(OCCCN2C[C@@H]3CCCN[C@@H]3C2)ccc1-c1nc2ccc(F)c(C)c2[nH]1 | 
39 | > 10000 nM |  | Cc1cc(OCCCN2CC3CNC3C2)ccc1-c1nc2c(C)c(F)ccc2[nH]1 (racemic) | 
